Data reported in patent US4657916A, “Quinoline-N-oxide derivative and pharmaceutical composition” (Kyowa Hakko Kogyo Co., Ltd., priority 1984, dated 1987).
Where a name gives a salt, the structure may show the parent alone.

Molecular target: T1, 5-lipoxygenase (Rattus norvegicus, UniProt P12527)
T1 construct: (RBL-1, ATCC NO. CRL 1378) cells of rats were used as a 5-lipoxygenase enzyme source; endogenous in cells; host or cells: RBL-1 (rat basophilic leukemia) cells, ATCC CRL 1378
T1 sequence (P12527 1-673): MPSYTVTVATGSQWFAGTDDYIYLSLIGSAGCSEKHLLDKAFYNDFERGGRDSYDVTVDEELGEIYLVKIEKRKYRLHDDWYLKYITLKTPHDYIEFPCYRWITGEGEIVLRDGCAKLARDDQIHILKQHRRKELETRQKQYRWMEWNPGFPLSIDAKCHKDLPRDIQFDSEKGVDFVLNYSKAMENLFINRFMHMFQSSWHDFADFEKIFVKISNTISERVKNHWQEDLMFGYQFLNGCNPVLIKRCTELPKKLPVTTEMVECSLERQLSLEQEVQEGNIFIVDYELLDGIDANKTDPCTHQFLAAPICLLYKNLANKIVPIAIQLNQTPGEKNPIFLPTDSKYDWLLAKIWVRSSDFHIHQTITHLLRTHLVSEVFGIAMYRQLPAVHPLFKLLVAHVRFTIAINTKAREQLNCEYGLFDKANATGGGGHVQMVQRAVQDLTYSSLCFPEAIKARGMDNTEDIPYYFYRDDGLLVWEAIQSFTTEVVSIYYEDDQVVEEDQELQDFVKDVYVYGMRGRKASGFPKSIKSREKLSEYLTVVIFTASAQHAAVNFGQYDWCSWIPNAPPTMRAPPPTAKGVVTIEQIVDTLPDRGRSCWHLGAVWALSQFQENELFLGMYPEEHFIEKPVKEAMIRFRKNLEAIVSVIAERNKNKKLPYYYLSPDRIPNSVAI
Assay: Inhibiting action on leukocyte 5-lipoxygenase in vitro (RBL-1 cells as enzyme source, 14C-arachidonic acid)
Type: biochemical, rats
Details: RBL-1 rat cells, 37° C., 5 minutes; for inhibition at 1 µM: 1 μM compound, read-out: 5-lipoxygenase-inhibiting activity: Percent inhibition at 1 μM compound concentration
Method: Inhibiting actions of test compounds shown in Table 2 on lipoxygenase in vitro were determined according to the following procedure.
Procedure for determining inhibiting actions on leukocyte 5-lipoxygenase:
Determination was conducted according to the modified B. A. Jakschik et al procedure [Biochim. Biophys. Res. Commun. 95, 103 (1980)]. That is, Leukemic basophilic granulocyte (RBL-1, ATCC NO. CRL 1378) cells of rats were used as a 5-lipoxygenase enzyme source, and the cells and a test compound were contacted with each other in a 0.07 M tris hydrochloric acid buffer solution in the presence of 0.7 μm moles of calcium chloride at 37° C. for 5 minutes, and then 20 μmoles of [^14 C]-arachidonic acid was added thereto. The mixture was subjected to reaction at 37° C. for 5 minutes. The reaction product was extracted with ethyl acetate/methanol/0.2 M citric acid (30/4/1) and the extract was subjected to a thin layer chromatographic separation (developing solvent: petroleum ether/ethyl ether/acetic acid=50/50/1), and the spot of […] in the product was scraped off and ^14 C was measured by a liquid scintillation counter.

Row | IC50 [µM] | inhibition at 1 µM [%] | Structure (SMILES)
1 | 0.27 | – | [O-][n+]1c(CCCCCCCCCCCNCc2ccccc2)cc(O)c2ccccc21 [Example 17, 4-hydroxy-2-[11-(N benzylaminoundecyl)] quinoline-Noxide]
2 | – | 7.7 | [O-][n+]1c(CCCCCCCCCCCO)cc(OCc2ccccc2)c2ccccc21 [1-(2), 4-benzyloxy-2-(11-hydroxyundecyl) quinoline-N-oxide]
3 | 0.25 | – | NCCCCCCCCCCCc1cc(O)c2ccccc2[n+]1[O-] [Example 16, 4-hydroxy-2-(11-aminoundecyl) quinoline-Noxide. hydrochloride]
4 | – | 37.2 | COC(CCCCCCCCCCc1cc(OCc2ccccc2)c2ccccc2[n+]1[O-])OC [Example 12, 4-benzyloxy-2-(11,11-dimethoxyundecyl) quinoline-N-oxide]
5 | – | 36.6 | [O-][n+]1c(CCCCCCCCCCC=NO)cc(OCc2ccccc2)c2ccccc21 [Example 11]
6 | – | 33.1 | O=CCCCCCCCCCCc1cc(OCc2ccccc2)c2ccccc2[n+]1[O-] [Example 7, 4-benzyloxy-2-(10-formyldecyl) quinoline-N-oxide]
7 | – | 27 | NCCCCCCCCCCCc1cc(OCc2ccccc2)c2ccccc2[n+]1[O-] [Example 9, 4-benzyloxy-2-(11-aminoundecyl) quinoline-N-oxide]
8 | 1.7 | – | O=CCCCCCCCCCCc1cc(O)c2ccccc2[n+]1[O-] [Example 20, 4-hydroxy-2-(10-formyldecyl) quinoline-Noxide]
9 | 0.28 | – | [O-][n+]1c(CCCCCCCCCCCO)cc(O)c2ccccc21 [Example 3, 4-hydroxy-2-(11-hydroxyundecyl) quinoline-N-oxide]
10 | – | 32.4 | [O-][n+]1c(CCCCCCCCCCCNCc2ccccc2)cc(OCc2ccccc2)c2ccccc21 [Example 10, 4-benzyloxy-2-[11-(N-benzylaminoundecyl)] quinoline-N-oxide]
11 | – | 27.3 | O=C(O)CCCCCCCCCCc1cc(OCc2ccccc2)c2ccccc2[n+]1[O-] [Example 8, 4-benzyloxy-2-(10-carboxydecyl) quinoline-N-oxide]

Further lines, the molecule ahead of its results:

Row | Structure (SMILES) | IC50 [µM] | inhibition at 1 µM [%]
12 | [O-][n+]1c(CCCOC2CCCCO2)cc(O)c2ccccc21 (stereo not shown) [Example 4, 4-hydroxy-2-[3-(2-tetrahydropyranyloxy)propyl] quinoline-N-oxide] | – | 1.6
13 | [O-][n+]1c(CCCCCCCCCCCO)c(Br)c(O)c2ccccc21 [Example 5, 3-bromo-4-hydroxy-2-(11-hydroxyundecyl) quinoline-N-oxide] | 0.22 | –
14 | [O-][n+]1c(CCCCCCCCCCCOC2CCCCO2)cc(O)c2ccccc21 (stereo not shown) [Example 14, 4-hydroxy-2-[11-(2-tetrahydropyranyloxy)undecyl] quinoline-N-oxide] | 0.16 | –
15 | O=C(O)CCCCCCCCCCc1cc(O)c2ccccc2[n+]1[O-] [Example 15, 4-hydroxy-2-(10-carboxydecyl) quinoline-Noxide] | 2.7 | –
16 | COC(CCCCCCCCCCc1cc(O)c2ccccc2[n+]1[O-])OC [Example 19, 4-hydroxy-2-(11,11-dimethoxyundecyl) quinoline-Noxide] | 0.18 | –
17 | [O-][n+]1c(CCCO)cc(OCc2ccccc2)c2ccccc21 [Example 2, 4-benzyloxy-2-(3-hydroxypropyl) quinoline-N-oxide] | – | 2.7
18 | [O-][n+]1c(CCCCCCCCCCCOC2CCCCO2)cc(OCc2ccccc2)c2ccccc21 (stereo not shown) [Example 6, 4-benzyloxy-2-[11-(2-tetrahydropyranyloxy)undecyl] quinoline-N-oxide] | – | 20
19 | [O-][n+]1c(CCCOC2CCCCO2)cc(OCc2ccccc2)c2ccccc21 (stereo not shown) [Example 13, 4-benzyloxy-2-[3-(2-tetrahydropyranyloxy)propyl]quinoline-Noxide] | – | 11.5
